Results on nine molecules are retold here after patent publication US9802944B2, “Bicyclic compounds as autotaxin (ATX) and lysophosphatidic acid (LPA) production inhibitors” (Hoffmann-La Roche Inc., priority 2014, dated 2017).

The test addresses ATX (human His-tagged) (Homo sapiens (Human), UniProt Q13822). The experiment in a line: Human ATX enzyme inhibition assay (fluorescence quenching, MR121 substrate). It counts as biochemical. The conditions noted are these: 30 nM ATX, 1 μM MR121 substrate, 30° C., pH 8.0. The procedure:
Production of Human Full Length ATX, with and without his Tag
Autotaxin (ATX-ENPP2) Cloning:
cDNA was prepared from commercial human hematopoietic cells total RNA and used as template in overlapping PCR to generate a full length human ENPP2 ORF with or without a 3′-6×His tag. These full length inserts were cloned into the pcDNA3.1V5-His TOPO (Invitrogen) vector. The DNA sequences of several single clones were verified. The DNA from a correct full length clone was used to transfect Hek293 cells for verification of protein expression. […] ATX Fermentation: Recombinant protein was produced by large-scale transient transfection in 20 L controlled stirred tank bioreactors (Sartorius). During cell growth and transfection, temperature, stirrer speed, pH and dissolved oxygen concentration were maintained at 37° C., 120 rpm, 7.1 and 30% DO, respectively. […] Expression was analyzed by Western Blot, enzymatic assay and/or analytical IMAC chromatography. After cooling the cell suspension to 4° C. in a flow-through heat exchanger, cell separation and sterile filtration of supernatant was performed by filtration through Zeta Plus 60M02 E16 (Cuno) and Sartopore 2 XLG (Sartorius) filter units. The supernatant was stored at 4° C. prior to purification. ATX Purification: 20 liter of culture supernatant were conditioned for ultrafiltration by adding Brij 35 to a final concentration of 0.02% and by adjusting the pH to 7.0 using 1 M HCl. Then the supernatant was first microfiltered through a 0.2 μm Ultran-Pilot Open Channel PES filter (Whatman) and afterwards concentrated to 1 liter through an Ultran-Pilot Screen Channel PES filter with 30 kDa MWCO (Whatman). Prior to IMAC chromatography, NiSO4 was added to a final concentration of 1 mM. The cleared supernatant was then applied to a HisTrap column (GE Healthcare) previously equilibrated in 50 mM Na2HPO4 pH 7.0, 0.5 M NaCl, 10% glycerol, 0.3% CHAPS, 0.02% NaN3. The column was washed stepwise with the same buffer containing 20 mM, 40 mM and 50 mM imidazole, respectively. The protein was subsequently eluted using a linear gradient to 0.5 M imidazole in 15 column volumes. ATX containing fractions were pooled and concentrated using an Amicon cell equipped with a 30 kDa PES filter membrane. The protein was further purified by size exclusion chromatography on Superdex S-200 prep grade (XK 26/100) (GE Healthcare) in 20 mM BICINE pH 8.5, 0.15 M NaCl, 10% glycerol, 0.3% CHAPS, 0.02% NaN3. […] The protein was stored at −80° C. […] 10 μL of MR121 substrate solution was added (1 μM final concentration), mixed 30 times and then incubated for 15 minutes at 30° C.

The structures appear in SMILES notation.

On to `O=C(c1cc(OCC2CCOCC2)nc(C2CC2)c1)N1C[C@@H]2CN(C(=O)c3ccc4[nH]nnc4c3)C[C@@H]2C1` [Example 2.26, ((3aR,6aS)-5-(1H-benzo[d][1,2,3]triazole-5-carbonyl)hexahydropyrrolo[3,4-c]pyrrol-2(1H)-yl)(2-cyclopropyl-6-((tetrahydro-2H-pyran-4-yl)methoxy)pyridin-4-yl)methanone], for which the IC50 worked out at 0.014 µM.

For `O=C(c1cc(OCC2CCOCC2)cc(C2CC2)c1)N1CC[C@@H]2CN(C(=O)[C@@H]3CCc4[nH]nnc4C3)C[C@@H]2CC1` [Example 2.28, ((3aR,8aS)-6-(3-cyclopropyl-5-((tetrahydro-2H-pyran-4-yl)methoxy)benzoyl)octahydropyrrolo[3,4-d]azepin-2(1H)-yl)((R)-4,5,6,7-tetrahydro-1H-benzo[d][1,2,3]triazol-5-yl)methanone], half-maximal inhibition (IC50) was put at 0.007 µM.

In turn, `O=C(c1cc(OCC2CCOCC2)cc(C2CC2)c1)N1C[C@@H]2CN(C(=O)c3ccc4[nH]nnc4c3)C[C@H]2C1` [Example 2.29, ((3aS,6aS)-5-(1H-benzo[d][1,2,3]triazole-5-carbonyl)hexahydropyrrolo[3,4-c]pyrrol-2(1H)-yl)(3-cyclopropyl-5-((tetrahydro-2H-pyran-4-yl)methoxy)phenyl)methanone] registered an IC50 of 0.007 µM.

Turning to `O=C(c1cnc(OC2CCOCC2)c(C2CC2)c1)N1C[C@@H]2CN(C(=O)c3ccc4[nH]c(=O)oc4c3)C[C@H]2C1` [Example 3, 6-((3aS,6aS)-5-(5-Cyclopropyl-6-(tetrahydro-2H-pyran-4-yloxy)nicotinoyl)octahydropyrrolo[3,4-c]pyrrole-2-carbonyl)benzo[d]oxazol-2(3H)-one], the IC50 came out at 0.025 µM.

In the case of `O=C(c1cc(OCC2CCOCC2)nc(C2CC2)c1)N1C[C@@H]2CN(C(=O)c3ccc4[nH]c(=O)oc4c3)C[C@H]2C1` [Example 3.01, 6-((3aS,6aS)-5-(2-cyclopropyl-6-((tetrahydro-2H-pyran-4-yl)methoxy)isonicotinoyl)octahydropyrrolo[3,4-c]pyrrole-2-carbonyl)benzo[d]oxazol-2(3H)-one], the IC50 was 0.012 µM.

In the case of `O=C(c1cc(OCC2CCOCC2)nc(C2CC2)c1)N1CC[C@@H]2CN(C(=O)c3ccc4[nH]c(=O)oc4c3)C[C@@H]2CC1` [Example 3.02, 6-((3aR,8aS)-6-(2-cyclopropyl-6-((tetrahydro-2H-pyran-4-yl)methoxy)isonicotinoyl)decahydropyrrolo[3,4-d]azepine-2-carbonyl)benzo[d]oxazol-2(3H)-one], 0.025 µM corresponded to half-maximal inhibition (IC50).

Molecule `O=C(c1cnc(OC2CCOCC2)c(C2CC2)c1)N1C[C@@H]2CN(Cc3ccc4[nH]c(=O)oc4c3)C[C@H]2C1` [Example 4, 6-(((3aS,6aS)-5-(5-Cyclopropyl-6-(tetrahydro-2H-pyran-4-yloxy)nicotinoyl)hexahydropyrrolo[3,4-c]pyrrol-2(1H)-yl)methyl)benzo[d]oxazol-2(3H)-one] had an IC50 of 0.019 µM.

Molecule `O=C(c1cnc(OC2CCOCC2)c(C2CC2)c1)N1C[C@@H]2CN(Cc3ccc4[nH]nnc4c3)C[C@H]2C1` [Example 4.01, ((3aS,6aS)-5-((1H-benzo[d][1,2,3]triazol-5-yl)methyl)hexahydropyrrolo[3,4-c]pyrrol-2(1H)-yl)(5-cyclopropyl-6-(tetrahydro-2H-pyran-4-yloxy)pyridin-3-yl)methanone] showed an IC50 of 0.039 µM.

`O=C(OCc1c[nH]nn1)N1C[C@H]2CCN(C(=O)c3cc(OCC4CCOCC4)nc(C4CC4)c3)CC[C@H]2C1` [Example 7, 1H-Triazol-4-ylmethyl (3aS,8aR)-6-[2-cyclopropyl-6-(oxan-4-ylmethoxy)pyridine-4-carbonyl]-1,3,3a,4,5,7,8,8a-octahydropyrrolo[3,4-d]azepine-2-carboxylate]: half-maximal inhibition (IC50) was put at 0.006 µM.

By IC50 is commonly meant the point on the concentration scale where inhibition reaches its midpoint. A lower IC50 goes with inhibition by little substance.
